“And” between values parts separate entries of the source, which are not always exact repeats. Equal values may be shown once.
Experiments:
[1] = target: Glycogen synthase kinase-3 alpha (Homo sapiens, UniProt P49840); assay: TR-FRET Assay
Outline: (§1)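 30 min preinc w/ cpd in assay buffer → kinase rxn → EDTA quench → add detection mix (40 nM SA-d2, 2 nM Tb-pSer641 Ab) → TR-FRET read.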

[2] = target: Glycogen synthase kinase-3 beta (Homo sapiens, UniProt P49841); assay: TR-FRET Assay
Outline: as §1

Chain of Glycogen synthase kinase-3 beta (P49841 whole entry): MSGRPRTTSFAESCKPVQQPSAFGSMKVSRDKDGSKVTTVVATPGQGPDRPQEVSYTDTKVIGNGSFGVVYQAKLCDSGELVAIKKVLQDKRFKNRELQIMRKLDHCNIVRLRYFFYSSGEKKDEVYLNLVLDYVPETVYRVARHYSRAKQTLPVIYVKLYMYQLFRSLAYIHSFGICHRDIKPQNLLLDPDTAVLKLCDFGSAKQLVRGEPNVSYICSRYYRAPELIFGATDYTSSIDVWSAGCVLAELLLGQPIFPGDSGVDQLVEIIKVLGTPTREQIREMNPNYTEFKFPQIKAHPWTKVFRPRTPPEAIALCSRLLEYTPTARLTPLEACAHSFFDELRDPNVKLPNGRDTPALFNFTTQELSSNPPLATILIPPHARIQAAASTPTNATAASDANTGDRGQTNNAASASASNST
Chain of Glycogen synthase kinase-3 alpha (P49840 whole entry): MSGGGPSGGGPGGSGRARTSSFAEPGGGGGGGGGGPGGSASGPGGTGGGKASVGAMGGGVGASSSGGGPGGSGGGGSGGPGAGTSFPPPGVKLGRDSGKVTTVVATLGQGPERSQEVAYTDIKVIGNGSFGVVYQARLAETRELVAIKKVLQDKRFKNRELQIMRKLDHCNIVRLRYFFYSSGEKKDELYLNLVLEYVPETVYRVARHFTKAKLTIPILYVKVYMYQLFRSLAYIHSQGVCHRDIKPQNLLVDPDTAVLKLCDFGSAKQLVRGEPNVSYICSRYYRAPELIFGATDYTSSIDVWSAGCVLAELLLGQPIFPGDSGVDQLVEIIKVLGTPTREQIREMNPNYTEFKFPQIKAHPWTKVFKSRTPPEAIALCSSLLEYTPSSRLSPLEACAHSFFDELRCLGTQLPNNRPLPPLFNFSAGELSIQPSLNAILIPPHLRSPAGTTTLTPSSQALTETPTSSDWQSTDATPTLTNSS

Structure (SMILES) | IC50 [1] | IC50 [2]
CC[C@]1(c2cccc(C(F)F)c2)C2=C(CC(C)(C)NC2=O)NC2N=NC(C(F)(F)F)=C21 (some centres undefined) [US20250313563, Compound 951946] | 100 to 1000 nM | 1000 to 5000 nM
CC1(C)CC2=C(C(=O)[C@@H]1F)C1(CCOCC1)C1=C(N=NC1)N2 [US20250313563, Compound 883835] | 100 to 1000 nM | 100 to 1000 nM
CC[C@@]1(c2cccc(C(C)C)c2)C2=CN=NC2NC2=C1C(=O)NC(C)(C)C2 (some centres undefined) [US20250313563, Compound 949752] | > 5000 nM | > 5000 nM
CC[C@@]1(c2cccc(-c3cnn(Cc4ccc(OC)cc4)c3)c2)C2=CN=NC2NC2=C1C(=O)NC(C)(C)C2 (some centres undefined) [US20250313563, Compound 951838] | 100 to 1000 nM | 1000 to 5000 nM
CC1(C)CC(=O)C2=C(C1)NC1=C(CN=N1)C21CN(Cc2ccccc2)C1 [US20250313563, Compound 929436] | > 5000 nM | > 5000 nM
CC[C@@]1(c2cccc(-c3ccnc(C)c3)c2)C2=C(CC(C)(C)NC2=O)NC2N=NC(C(F)(F)F)=C21 (some centres undefined) [US20250313563, Compound 948774] | < 100 nM | < 100 nM
CCC1(c2cccc(-c3cnn4c3CCCC4)c2)C2=C(CC(C)(C)NC2=O)NC2N=NC(C(F)(F)F)=C21 (centres undefined) [US20250313563, Compound 947801] | < 100 nM | < 100 nM
Cc1ccccc1C(=O)N1CC2(C1)CC1(CO2)C2=C(N=NC2)NC2=C1C(=O)CC(C)(C)C2 (centres undefined) [US20250313563, Compound 947287] | < 100 nM | 100 to 1000 nM
CC[C@@]1(c2cccc(C(F)(F)F)c2)C2=CN=NC2NC2=C1C(=O)N(c1ccc(F)cc1)CC2 (some centres undefined) [US20250313563, Compound 948225] | 1000 to 5000 nM | > 5000 nM
CC[C@]1(c2cccc(-c3cc(C)ncc3C)c2)C2=CN=NC2NC2=C1C(=O)CC(C)(C)C2 (some centres undefined) [US20250313563, Compound 943514] | < 100 nM | < 100 nM
CC[C@@]1(c2cccc(S(=O)(=O)C(C)C)c2)C2=CN=NC2NC2=C1C(=O)NC(C)(C)C2 (some centres undefined) [US20250313563, Compound 947823] | 100 to 1000 nM | 1000 to 5000 nM
CC[C@@]1(c2cccc(-c3ccncc3O)c2)C2=CN=NC2NC2=C1C(=O)CC(C)(C)C2 (some centres undefined) [US20250313563, Compound 945724] | < 100 nM and 100 to 1000 nM | < 100 nM and 1000 to 5000 nM
CC1(C)CC(=O)C2=C(C1)NC1=C(CN=N1)C21CCN(S(=O)(=O)c2cccc3c2OCCO3)CC1 [US20250313563, Compound 947464] | < 100 nM | < 100 nM and 100 to 1000 nM
CC[C@]1(c2ccccc2)C2=C(N=NC2)NC2=C1C(=O)[C@@H]1CC[C@H]2C1 [US20250313563, Compound 791270] | 100 to 1000 nM | > 1700 nM
CCC1(c2cccc(N(C)C(=O)CN3CCCC3)c2)C2=CN=NC2NC2=C1C(=O)CC(C)(C)C2 (centres undefined) [US20250313563, Compound 913125] | < 100 nM | 100 to 1000 nM
CCC1(c2cccc(N(C)C(O)C3CC3)c2)C2=CN=NC2NC2=C1C(=O)CC(C)(C)C2 (centres undefined) [US20250313563, Compound 912067] | < 100 nM | < 100 nM
C[C@@H]1CCC[C@]2(C1)C1=C(N=NC1)NC1=C2C(=O)CC(C)(C)C1 [US20250313563, Compound 893320] | < 100 nM | < 100 nM
CC1(C)CC(=O)C2=C(C1)NC1=C(CN=N1)[C@]21COC2(CN(C(=O)[C@@H]3CC3(F)F)C2)C1 [US20250313563, Compound 948219] | < 100 nM and 100 to 1000 nM | < 100 nM and 1000 to 5000 nM
CC1(C)CC(=O)C2=C(C1)NC1=C(CN=N1)C21CCN(S(=O)(=O)C2=CN=C3CC=CC=C3C2)CC1 [US20250313563, Compound 947462] | < 100 nM and 100 to 1000 nM | < 100 nM and 1000 to 5000 nM
CC[C@@]1(c2cccc(-c3cc(-c4ccccc4)nn3C(C)C)c2)C2=CN=NC2NC2=C1C(=O)NC(C)(C)C2 (some centres undefined) [US20250313563, Compound 952411] | 1000 to 5000 nM | > 5000 nM
CC[C@@]1(c2cccc(N(C)c3ncccn3)c2)C2=C(CC(C)(C)NC2=O)NC2N=NC(Cl)=C21 (some centres undefined) [US20250313563, Compound 951618] | 100 to 1000 nM | 1000 to 5000 nM
CC(C)(C)CC1=C2C(N=N1)NC1=C(C(=O)CC(C)(C)C1)[C@@]21CCc2cccc(F)c21 (some centres undefined) [US20250313563, Compound 801352] | 100 to 1000 nM | < 100 nM
CC1(C)CC(=O)C2=C(C1)NC1N=NC(CCC(F)(F)F)=C1[C@]2(C)c1ccccc1 (some centres undefined) [US20250313563, Compound 856949] | 100 to 1000 nM | < 100 nM
CC1(C)CC(=O)C2=C(C1)NC1=C(CN=N1)C21COC2(CN(C(=O)C3CCCCCC3)C2)C1 (centres undefined) [US20250313563, Compound 947308] | < 100 nM | 100 to 1000 nM
O=C1CC2(CCCCC2)CC2=C1C1(CCOCC1)C1=C(N=NC1)N2 [US20250313563, Compound 893307] | < 100 nM | 100 to 1000 nM
CC[C@@]1(c2cccc(-c3c(F)cncc3F)c2)C2=CN=NC2NC2=C1C(=O)NC(C)(C)C2 (some centres undefined) [US20250313563, Compound 948525] | < 100 nM and 100 to 1000 nM | < 100 nM and 1000 to 5000 nM
CCC1(c2cccc(C(F)(F)F)c2)C2=C(CC(C)(C)CC2=O)NC2N=NC(C)=C21 (centres undefined) [US20250313563, Compound 801321] | < 100 nM | < 100 nM
Cc1cccc(C(=O)N2CC3(C2)CC2(CO3)C3=C(N=NC3)NC3=C2C(=O)CC(C)(C)C3)c1C (centres undefined) [US20250313563, Compound 947284] | < 100 nM | 100 to 1000 nM

Second part, the compound after the results:

IC50 [1] | IC50 [2] | Structure (SMILES)
100 to 1000 nM and > 5000 nM | 100 to 1000 nM and > 5000 nM | CC[C@@]1(c2ccccc2)C2=CN=NC2NC2=C1C(=O)CC(C)(C)[C@H]2F (some centres undefined) [US20250313563, Compound 957200]
< 100 nM | 100 to 1000 nM | CCc1cc(-c2cccc([C@]3(CC)C4=CN=NC4NC4=C3C(=O)NC(C)(C)C4)c2)ccn1 (some centres undefined) [US20250313563, Compound 948370]
< 100 nM | 100 to 1000 nM | CCC1(c2cccc(-c3cnn(C)c3C)c2)C2=C(CC(C)(C)NC2=O)NC2N=NC(C)=C21 (centres undefined) [US20250313563, Compound 944028]
100 to 1000 nM | 100 to 1000 nM and 1000 to 5000 nM | CC[C@@]1(c2cccc(-c3cnn(C)c3)c2)C2=C(CC(C)(C)NC2=O)NC2N=NC(C)=C21 (some centres undefined) [US20250313563, Compound 945614]
1000 to 5000 nM | 100 to 1000 nM | CC(C)(C)CC1N=NC2=C1[C@](C)(c1cccc(S(=O)(=O)C(F)(F)F)c1)C1=C(CC(C)(C)CC1=O)N2 (some centres undefined) [US20250313563, Compound 126395]
1000 to 5000 nM | > 5000 nM | CCCS(=O)(=O)c1cccc([C@]2(CC)C3=CN=NC3NC3=C2C(=O)CC(C)(C)C3)c1 (some centres undefined) [US20250313563, Compound 929452]
< 100 nM and 100 to 1000 nM | < 100 nM and 1000 to 5000 nM | COc1cc(S(=O)(=O)N2CCC3(CC2)C2=C(N=NC2)NC2=C3C(=O)CC(C)(C)C2)ccc1F [US20250313563, Compound 947263]
< 100 nM | < 100 nM | CC1(C)CC(=O)C2=C(C1)NC1=C(CN=N1)C21CCN(S(=O)(=O)c2cccc(Cl)c2Cl)CC1 [US20250313563, Compound 947249]
< 100 nM | 100 to 1000 nM | CCC1(c2cccc(C3=CN=NC3)c2)C2=CN=NC2NC2=C1C(=O)NC(C)(C)C2 (centres undefined) [US20250313563, Compound 944022]
> 5000 nM | > 5000 nM | CC[C@]1(c2cccc(-c3ccncc3F)c2)C2=C(CC(C)(C)NC2=O)NC2N=NC(Cl)=C21 (some centres undefined) [US20250313563, Compound 949756]
100 to 1000 nM | 100 to 1000 nM | CC1(C)CC(=O)C2=C(C1)NC1N=NC(CC(F)(F)F)=C1C21CCc2c(F)cccc21 (centres undefined) [US20250313563, Compound 810590]
< 100 nM | 100 to 1000 nM | CCC1(c2cccc(-c3cc(OC)ncn3)c2)C2=CN=NC2NC2=C1C(=O)CC(C)(C)C2 (centres undefined) [US20250313563, Compound 948093]
< 100 nM | < 100 nM | CC1(C)CC(=O)C2=C(C1)NC1=C(CN=N1)C21CCN(S(=O)(=O)c2cccc(C(F)(F)F)c2)CC1 [US20250313563, Compound 947244]
100 to 1000 nM | 1000 to 5000 nM | CC(=O)N1CCC2(CC1)C1=C(N=NC1)NC1=C2C(=O)CC(C)(C)C1 [US20250313563, Compound 826649]
< 100 nM | < 100 nM | CCc1ncc(S(=O)(=O)N2CCC3(CC2)C2=CN=NC2NC2=C3C(=O)NC(C)(C)C2)s1 (centres undefined) [US20250313563, Compound 947837]
1000 to 5000 nM | > 5000 nM | CC[C@]1(c2cccc(OC)c2)C2=CN=NC2NC2=C1C(=O)CC(C)(C)C2 (some centres undefined) [US20250313563, Compound 811561]
< 100 nM | 100 to 1000 nM | CC[C@]1(c2cccc(-c3cncn3C)c2)C2=C(CC(C)(C)CC2=O)NC2N=NC(C)=C21 (some centres undefined) [US20250313563, Compound 913037]
< 100 nM | 100 to 1000 nM | CCC1(c2cccc(-c3cnn4c3CCCC4)c2)C2=CN=NC2NC2=C1C(=O)CC(C)(C)C2 (centres undefined) [US20250313563, Compound 926836]
< 100 nM | 100 to 1000 nM | CC1(C)CC(=O)C2=C(C1)NC1=C(CN=N1)[C@@]21CO[C@H](c2ccccc2)C1 [US20250313563, Compound 946072]
< 100 nM | 100 to 1000 nM | CC[C@]1(c2cccc(N3CCC3(C)C)c2)C2=CN=NC2NC2=C1C(=O)CC(C)(C)C2 (some centres undefined) [US20250313563, Compound 913140]
< 100 nM and 100 to 1000 nM | < 100 nM and 1000 to 5000 nM | Cc1cc(S(=O)(=O)N2CCC3(CC2)C2=C(N=NC2)NC2=C3C(=O)CC(C)(C)C2)cc(C)n1 [US20250313563, Compound 947616]
1000 to 5000 nM | 1000 to 5000 nM | CCC1(c2cccc(N3CCCCC3)c2)C2=CN=NC2NC2=C1C(=O)NC(C)(C)C2 (centres undefined) [US20250313563, Compound 947566]
100 to 1000 nM | 100 to 1000 nM | CC1(C)CC(=O)C2=C(C1)NC1N=NC=C1C21CCCN(CC(F)(F)F)CC1 (centres undefined) [US20250313563, Compound 889576]
100 to 1000 nM | 1000 to 5000 nM | CC1(C)CC(=O)C2=C(C1)NC1=C(CN=N1)[C@@]21COC2(CN(C(=O)[C@H]3CC3(F)F)C2)C1 [US20250313563, Compound 948217]
